Earlier results as cited in patent publication US20110166946A1, “METHOD OF PROMOTING AND SELLING COFFEE” (NESTEC S.A., priority 2008, published 2011).

Tests used:
[1] = after 50 μM chlorogenic acid intestinal perfusion, rat
[2] = preclinical models
[3] = in vivo

| isoferulic acid detected in plasma [1] | time of appearance of conjugated forms of CA in plasma after ingestion [2] | SMILES | time of appearance in blood after ingestion [3] | time to reach baseline level after ingestion [3] |
| --- | --- | --- | --- | --- |
| 0.12 µM | 30 min | O=C(/C=C/c1ccc(O)c(O)c1)O[C@@H]1C[C@](O)(C(=O)O)C[C@@H](O)[C@H]1O [chlorogenic acid, 5-caffeoylquinic acid] | – | – |
| – | – | Oc1cc(O)c2c(c1)O[C@H](c1cc(O)c(O)c(O)c1)[C@H](O)C2 [EGC, (−)-Epigallocatechin] | ≤ 30 min | ≤ 12 h |
